Laboratory results as given in article PMC3004914, “Classification of Drugs Based on Properties of Sodium Channel Inhibition: A Comparative Automated Patch-Clamp Study” (PLoS ONE, 2010).
Like-named read-outs stand apart in the source and are kept apart here.

Legend:
[1] = molecular target: T1, rNav1.2 sodium channels (HEK-293 cells) (Rattus norvegicus, UniProt P04775); assay: steady-state inactivation protocol (availability curves), QPatch automated patch-clamp; type: cell-based
Description: (§1) A)–D) Peak amplitudes of evoked currents (5 Hz trains of 5 depolarizations from −90 to −10 mV) are plotted against time. Black dots: Control. Grey dots: Drug perfusion. […] Calculation of properties of inhibition is illustrated. […] E) Calculation of Kr and Ki values from steady-state availability curves.
Standard steady-state inactivation protocols were used to measure the shift of steady-state availability curve caused by the drugs. Currents were evoked by a 10 ms test pulse to −10 mV, preceded by 400 ms pre-pulses from −150 to −30 mV. […] Because the inhibition at hyperpolarized potentials (Inh−150), and the shift of the availability curves (ΔV1/2) are both concentration-dependent properties, we calculated affinities to hyperpolarized and depolarized states (“resting state affinity”: Kr, and “inactivated state affinity”: Ki), which, on the other hand, are concentration-independent characteristics of individual drugs. Calculation of Kr and Ki values are described in Materials and Methods, and illustrated in Figure 1E. State-dependence (SD) was quantified as the ratio Kr/Ki.
(§2) HEK-293 cells stably expressing rNav1.2 sodium channels were obtained from NeuroSearch (Ballerup, Denmark).
(§3) Cells were automatically prepared for application to the chips (centrifuged and washed twice, then resuspended in extracellular solution) as described previously. Composition of the extracellular solution was: (in mM): 140 NaCl, 3 KCl, 1 CaCl2, 1 MgCl2, 0.1 CdCl2, 20 TEA-Cl, 5 HEPES, adjusted to pH 7.3, Osmolality: ∼320 mOsm.
(§4) All electrophysiological experiments were conducted on Qpatch-16 or QPatch HT instruments using QPlate™ chips. For a detailed description of the instrument and the patch-clamp chips see [37], [38]. Data were sampled at a frequency of 25 kHz and filtered at 5 kHz. […] The amplifier was controlled and the data were collected by the Sophion QPatch client software. For initial data analysis the QPatch software was used. Built-in amplifiers provide an improved method for series resistance compensation. Leak subtraction (based on a standard P/n protocol) was used to subtract the capacitive component of currents.
Inactivated affinity (Ki) values were calculated assuming a simple four-state model of drug binding and channel gating, using two separate methods: (1) from the shift of the availability curve (ΔV1/2), the slope of the Boltzmann fit of the availability curve (k) and Kr, using the formula described by Bean, Cohen and Tsien (Ki−ΔV1/2; see Figure 1E), or (2) from the apparent affinity (Kapp) at a certain pre-pulse potential, which was calculated from the inhibition (e.g. Inh−60) as described above, and the availability (h) at the same pre-pulse potential, using the formula from Kuo and Bean (Figure 1E). […] (Arithmetic means and SEM values are given in Results S7.)

sodium channels = conditions: averaged literature data, cited from earlier work; for Ki: read-out: Ki−Lit; for Kd: read-out: Kr−Lit
[2] = molecular target: T1, rNav1.2 sodium channels (HEK-293 cells); assay: 5 Hz train protocol, QPatch automated patch-clamp; type: cell-based; conditions: for Rev (reversibility): Rev = A5/A1 after washout; for potency estimated from few doses: −90 mV, read-out: IC50;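 on UD (use-dependence of the inhibition): UD = (A3/A4)/(A1/A2) as ratios of peak amplitudes from Figure 1A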
Description: The dynamics of the onset and offset of inhibition was monitored using 5 Hz trains of five depolarizing pulses from a holding potential of −90 mV to −10 mV. The trains were repeated every 20 s. Drugs were applied after 10 control trains and 10 trains were delivered in the presence of the drug. The drug was then washed out, and the 10 trains were repeated.
We measured inhibition (Inh; from which we calculated IC50 values as described in Materials and Methods), reversibility of inhibition (Rev) and use-dependence (UD), as well as time constant of onset (τon) and offset (τoff). The calculation of IC50, quantification of Rev and UD, and the determination of time constants are illustrated in Figure 1A. Because τon should be concentration-dependent if we assume a single binding reaction, we excluded it from the analyses. […] Comments on the interpretation of these properties (Rev, […] and UD) are in Results S1.
as §1, §2, §3, §4
From this protocol we extracted five parameters, as illustrated in Figure 1A. We calculated inhibition of a single “cc” concentration: Inh = (amplitudectr – amplitudedrug)/amplitudectr.

[3] = human plasma, cited from earlier work
[4] = arithmetic mean, 100 µM, read-out: Ki-Kapp arith
[5] = arithmetic mean, 100 µM, read-out: Ki-ΔV1/2 arith
[6] = arithmetic mean, 100 µM, read-out: Kr arith
[7] = geometric mean, from Inh at −150 mV, 100 µM, read-out: Kr (resting state affinity)
[8] = geometric mean, from apparent affinity, 100 µM, read-out: Ki−Kapp (inactivated state affinity)
[9] = geometric mean, from shift of availability curve, 100 µM, read-out: Ki−ΔV1/2 (inactivated state affinity)
[10] = 100 μM, 500 s assigned where irreversible

T1 sequence (P04775 whole entry, the tested form may be a part): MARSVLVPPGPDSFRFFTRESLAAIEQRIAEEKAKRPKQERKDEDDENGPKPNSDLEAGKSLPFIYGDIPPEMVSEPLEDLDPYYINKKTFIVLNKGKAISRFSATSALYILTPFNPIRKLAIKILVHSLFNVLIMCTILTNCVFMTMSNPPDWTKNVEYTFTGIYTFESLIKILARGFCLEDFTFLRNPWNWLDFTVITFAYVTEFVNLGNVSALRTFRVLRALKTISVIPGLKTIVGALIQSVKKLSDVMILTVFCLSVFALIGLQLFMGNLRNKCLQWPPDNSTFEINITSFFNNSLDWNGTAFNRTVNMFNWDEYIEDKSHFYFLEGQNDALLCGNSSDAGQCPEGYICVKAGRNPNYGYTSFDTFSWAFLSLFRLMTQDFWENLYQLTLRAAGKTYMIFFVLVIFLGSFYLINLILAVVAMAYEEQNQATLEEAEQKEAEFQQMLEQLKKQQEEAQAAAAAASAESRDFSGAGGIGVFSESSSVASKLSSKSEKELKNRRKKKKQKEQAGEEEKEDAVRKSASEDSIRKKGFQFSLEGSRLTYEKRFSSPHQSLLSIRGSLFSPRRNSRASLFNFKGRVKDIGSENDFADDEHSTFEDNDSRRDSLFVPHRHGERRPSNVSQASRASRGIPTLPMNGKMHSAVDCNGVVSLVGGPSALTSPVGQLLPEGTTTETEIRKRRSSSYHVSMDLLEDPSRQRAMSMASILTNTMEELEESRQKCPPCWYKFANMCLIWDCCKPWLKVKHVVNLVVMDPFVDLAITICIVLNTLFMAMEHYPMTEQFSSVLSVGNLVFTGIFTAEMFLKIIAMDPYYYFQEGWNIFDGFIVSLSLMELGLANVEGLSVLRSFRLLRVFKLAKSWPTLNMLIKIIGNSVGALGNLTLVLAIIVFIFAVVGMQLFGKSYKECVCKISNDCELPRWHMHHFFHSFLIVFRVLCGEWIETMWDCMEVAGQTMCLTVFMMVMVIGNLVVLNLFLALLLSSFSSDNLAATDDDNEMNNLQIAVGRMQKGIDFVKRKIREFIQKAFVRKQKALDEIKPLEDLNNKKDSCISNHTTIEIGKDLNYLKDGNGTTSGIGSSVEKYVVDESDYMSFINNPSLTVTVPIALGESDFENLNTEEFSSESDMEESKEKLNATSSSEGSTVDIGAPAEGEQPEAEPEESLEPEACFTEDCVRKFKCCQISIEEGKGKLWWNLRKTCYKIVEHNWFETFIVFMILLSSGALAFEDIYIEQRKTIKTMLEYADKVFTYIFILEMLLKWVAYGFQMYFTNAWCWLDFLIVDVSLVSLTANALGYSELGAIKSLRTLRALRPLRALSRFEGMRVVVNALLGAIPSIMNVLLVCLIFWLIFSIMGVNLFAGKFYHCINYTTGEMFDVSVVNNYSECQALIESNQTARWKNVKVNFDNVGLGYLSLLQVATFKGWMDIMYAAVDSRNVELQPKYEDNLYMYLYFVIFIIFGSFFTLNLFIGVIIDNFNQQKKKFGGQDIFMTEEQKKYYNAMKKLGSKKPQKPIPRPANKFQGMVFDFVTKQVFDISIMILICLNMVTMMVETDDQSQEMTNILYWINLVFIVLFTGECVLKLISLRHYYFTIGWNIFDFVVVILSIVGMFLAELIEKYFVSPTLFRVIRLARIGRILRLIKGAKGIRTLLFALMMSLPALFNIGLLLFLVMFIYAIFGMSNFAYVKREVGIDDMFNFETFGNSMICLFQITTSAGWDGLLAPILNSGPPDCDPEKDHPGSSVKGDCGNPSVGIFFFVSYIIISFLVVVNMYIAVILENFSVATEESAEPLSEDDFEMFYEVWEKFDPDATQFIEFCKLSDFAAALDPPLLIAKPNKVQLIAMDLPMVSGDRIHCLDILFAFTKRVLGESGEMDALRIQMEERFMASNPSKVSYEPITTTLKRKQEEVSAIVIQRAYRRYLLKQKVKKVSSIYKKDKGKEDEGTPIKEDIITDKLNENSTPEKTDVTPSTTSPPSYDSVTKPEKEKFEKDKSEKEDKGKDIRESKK

SMILES	ΔV1/2 (shift of availability curve) ([1]; 100 μM)	Ki [1, 4]	Ki [1, 5]	Kd [1, 6]	Kd [1, 7]	Ki [1, 8]	Ki [1, 9]	Ki (sodium channels)	Kd (sodium channels)	τon ([2]; 100 μM)	UD (use-dependence of the inhibition) ([2]; 100 μM, 5 Hz train)	τoff [2, 10]	Rev (reversibility) ([2]; 100 μM)	plasma conc. ([3]; as printed in each cell)	plasma conc. ([3]; as printed in the µg/ml cell)	further results
C[Si](C)(Cc1ccc(F)cc1)CN1CCCCC1 [SIL, Silperisone]	−7.66 mV	7.08 µM	14.6 µM	135 µM	133 µM	6.7 µM	14 µM	34.9 µM	340 µM	4.1 s	1.16	15.21 s	0.8	0.45 [56] µg/ml	1.484 µM	Inh (inhibited fraction) at holding potential −150 mV ([1]; 100 μM): 0.43; Inh (inhibited fraction) ([2]; 100 μM, −90 mV holding potential, 5 Hz train): 0.45; potency estimated from few doses ([2]; calculated from Inh at single concentration 100 μM, 5 Hz train): 121 µM
CC12CC3CC(C)(C1)CC(N)(C3)C2 [MEM, Memantine]	−1.77 mV	32.6 µM	119 µM	248 µM	242 µM	28.5 µM	110 µM	6.67 µM	178 µM	3.51 s	0.99	8.98 s	0.93	0.02 [53] µg/ml	0.075 µM	inhibition at 100 µM ([1]; HEK293, 100 µM, read-out: Inh (inhibited fraction) at holding potential −150 mV): 29%; inhibition at 100 µM ([2]; HEK293, 100 μM, −90 mV holding potential, 5 Hz train, read-out: Inh (inhibited fraction)): 32%; potency estimated from few doses ([2]; HEK293, calculated from Inh at single concentration 100 μM, 5 Hz train): 230 µM
NC(=O)N1c2ccccc2C=Cc2ccccc21 [CBZ, Carbamazepine]	–	–	–	–	–	–	–	21.8 µM	946 µM	–	–	–	–	9.3 [44] µg/ml	39.362 µM	ΔV1/2 (shift of availability curve) ([1]; 300 μM): −11.4 mV; inhibition at 300 µM ([1]; HEK293, 300 µM, read-out: Inh (inhibited fraction) at holding potential −150 mV): 21%; Ki ([1]; arithmetic mean, 300 µM, read-out: Ki-Kapp arith): 26.9 µM; Ki ([1]; arithmetic mean, 300 µM, read-out: Ki-ΔV1/2 arith): 40.1 µM; Kd ([1]; arithmetic mean, 300 µM, read-out: Kr arith): 1180 µM; Kd ([1]; geometric mean, from Inh at −150 mV, 300 µM, read-out: Kr (resting state affinity)): 1170 µM; Ki ([1]; geometric mean, from apparent affinity, 300 µM, read-out: Ki−Kapp (inactivated state affinity)): 26.4 µM; Ki ([1]; geometric mean, from shift of availability curve, 300 µM, read-out: Ki−ΔV1/2 (inactivated state affinity)): 39.9 µM; τoff ([2]; 300 μM): 10.01 s; τon ([2]; 300 μM, 3 s assigned where too short to be resolved): 3 s; UD (use-dependence of the inhibition) ([2]; 300 μM, 5 Hz train): 0.98; Rev (reversibility) ([2]; 300 μM): 0.87; inhibition at 300 µM ([2]; HEK293, 300 μM, −90 mV holding potential, 5 Hz train, read-out: Inh (inhibited fraction)): 29%; potency estimated from few doses ([2]; HEK293, calculated from Inh at single concentration 300 μM, 5 Hz train): 718 µM; potency ([2]; in words): among the least potent SCIs
